Source: patent US9783536B2, “Nitrogen-containing heterocyclic compound or salt thereof” (FUJIFILM Corporation, priority 2013, dated 2017)
Where a name gives a salt, the structure may show the parent alone. Read-outs that look alike come from different tables or passages of the source.

Key:
Assay type in all cases: biochemical
[1] = molecular target: T1, GST fusion human ERK2 protein (Homo sapiens, UniProt P28482); experiment: ERK2 enzyme assay (1); conditions: read-out: ERK2 enzyme inhibitory activity (1)
T1 construct: purchased Carna Biosciences, Inc; host or cells: E. coli expression system
T1 sequence (P28482 whole entry, the tested form may be a part): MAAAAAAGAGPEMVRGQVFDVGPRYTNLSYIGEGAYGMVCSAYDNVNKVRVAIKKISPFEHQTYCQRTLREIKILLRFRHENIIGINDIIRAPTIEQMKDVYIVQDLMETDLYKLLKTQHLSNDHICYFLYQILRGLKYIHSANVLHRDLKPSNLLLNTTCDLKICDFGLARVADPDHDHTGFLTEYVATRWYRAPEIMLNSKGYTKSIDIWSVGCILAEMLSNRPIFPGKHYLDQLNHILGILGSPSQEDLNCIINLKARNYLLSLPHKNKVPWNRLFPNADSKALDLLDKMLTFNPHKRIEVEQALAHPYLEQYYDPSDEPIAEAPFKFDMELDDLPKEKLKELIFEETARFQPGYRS
How it was run: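 Enzyme (2.5 nmol/L, E. coli-expressed) preincubated with compound 15 min at room temperature in HEPES/MgCl2/DTT/Brij35 buffer, pH 7.5; reaction with 4.25 μmol/L FL-Peptide 8 and 43.1 μmol/L ATP for 120 min at 25 °C. Phosphorylated peptide fraction quantified by mobility-shift separation after EDTA stop; IC50 calculated.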

[2] = molecular target: T2, human PI3Kα protein (Homo sapiens, UniProt P42336); experiment: PI3Kα enzyme assay (ADP-Glo); conditions: read-out: PI3Kα enzyme inhibitory activity
T2 construct: purchased Carna Biosciences, Inc; host or cells: baculovirus expression system
T2 sequence (P42336 whole entry): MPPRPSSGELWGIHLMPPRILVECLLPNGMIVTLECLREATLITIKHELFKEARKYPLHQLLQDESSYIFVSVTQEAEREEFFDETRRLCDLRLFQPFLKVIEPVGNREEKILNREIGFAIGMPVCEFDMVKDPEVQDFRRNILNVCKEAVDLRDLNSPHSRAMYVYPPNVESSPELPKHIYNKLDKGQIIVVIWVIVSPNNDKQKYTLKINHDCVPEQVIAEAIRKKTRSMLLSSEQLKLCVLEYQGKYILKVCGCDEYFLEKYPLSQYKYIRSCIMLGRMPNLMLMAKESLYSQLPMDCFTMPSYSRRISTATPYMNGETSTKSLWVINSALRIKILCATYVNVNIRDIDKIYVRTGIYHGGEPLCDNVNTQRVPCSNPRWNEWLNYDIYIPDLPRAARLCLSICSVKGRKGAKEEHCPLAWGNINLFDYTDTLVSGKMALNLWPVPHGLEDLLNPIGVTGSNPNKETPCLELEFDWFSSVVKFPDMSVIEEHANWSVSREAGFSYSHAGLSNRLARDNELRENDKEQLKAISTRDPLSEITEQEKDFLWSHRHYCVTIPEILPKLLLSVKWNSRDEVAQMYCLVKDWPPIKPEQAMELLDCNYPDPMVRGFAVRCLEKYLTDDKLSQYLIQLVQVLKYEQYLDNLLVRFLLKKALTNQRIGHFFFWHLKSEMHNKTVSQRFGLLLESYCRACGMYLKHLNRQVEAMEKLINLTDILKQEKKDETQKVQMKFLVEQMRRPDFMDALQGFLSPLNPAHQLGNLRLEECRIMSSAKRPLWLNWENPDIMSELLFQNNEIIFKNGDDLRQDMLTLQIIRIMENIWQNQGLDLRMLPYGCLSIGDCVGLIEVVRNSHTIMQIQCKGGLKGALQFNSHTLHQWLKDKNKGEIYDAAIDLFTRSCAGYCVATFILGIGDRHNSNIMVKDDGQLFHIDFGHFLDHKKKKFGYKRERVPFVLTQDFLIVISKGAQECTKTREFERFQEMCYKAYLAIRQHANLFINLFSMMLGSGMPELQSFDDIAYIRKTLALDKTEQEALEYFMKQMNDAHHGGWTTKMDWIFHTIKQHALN
T2 sequence (P27986 whole entry partner): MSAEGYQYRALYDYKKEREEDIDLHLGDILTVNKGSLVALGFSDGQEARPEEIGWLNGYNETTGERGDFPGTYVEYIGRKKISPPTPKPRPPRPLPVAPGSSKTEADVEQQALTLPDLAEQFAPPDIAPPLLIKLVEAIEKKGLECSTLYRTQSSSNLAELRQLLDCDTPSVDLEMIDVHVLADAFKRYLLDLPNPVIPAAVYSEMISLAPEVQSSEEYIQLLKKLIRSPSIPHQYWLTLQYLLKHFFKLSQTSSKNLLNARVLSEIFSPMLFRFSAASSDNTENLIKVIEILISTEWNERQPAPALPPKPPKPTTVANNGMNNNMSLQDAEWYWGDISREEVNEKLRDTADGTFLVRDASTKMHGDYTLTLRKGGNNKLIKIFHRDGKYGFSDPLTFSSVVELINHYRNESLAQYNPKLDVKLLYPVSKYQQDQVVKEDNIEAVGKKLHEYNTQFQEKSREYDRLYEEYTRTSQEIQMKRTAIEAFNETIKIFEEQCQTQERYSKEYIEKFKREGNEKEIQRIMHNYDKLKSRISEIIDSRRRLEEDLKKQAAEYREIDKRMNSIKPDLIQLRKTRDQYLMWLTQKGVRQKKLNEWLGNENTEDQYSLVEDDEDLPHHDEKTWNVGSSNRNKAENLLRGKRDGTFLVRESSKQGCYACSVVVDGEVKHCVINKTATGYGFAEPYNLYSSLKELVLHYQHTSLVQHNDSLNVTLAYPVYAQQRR
How it was run: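 Biotinylated human PI3Kα (baculovirus-expressed, 4.5 nmol/L) pre-incubated 15 min with compound in Tris-HCl pH 7.5, MgCl2, BSA; reaction 60 min at 25° C with 50 μmol/L PIP2 and 100 μmol/L ATP final. ADP quantified by ADP-Glo luminescence; IC50 calculated.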

[3] = molecular target: T1, GST fusion human ERK2 protein; experiment: ERK2 enzyme assay (2); conditions: read-out: ERK2 enzyme inhibitory activity (2)
How it was run: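 GST-tagged human ERK2 expressed in E. coli (1.25 nmol/L) was preincubated with compound for 15 min at room temperature in pH 7.5 Hepes buffer with MgCl2, DTT and Brij35. Reaction with FL-Peptide 8 (final 4.25 μmol/L) and ATP (final 1 mmol/L) ran 120 min at 25 °C; EDTA stopped it, and phosphorylated peptide was quantified by mobility-shift separation to derive IC50.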

[4] = 2.5 nmol/L ERK2, ATP 43.1 μmol/L
[5] = 4.5 nmol/L PI3Kα, PIP2 50 μmol/L, ATP 100 μmol/L

Row | SMILES | IC50 [1, 4] [nM] | IC50 [2, 5] [nM] | IC50 ([3]; 1.25 nmol/L ERK2, ATP 1 mmol/L) [nM] | IC50 ([1]; ERK2 enzyme assay (1)) [nM] | IC50 [2] [nM] | IC50 ([3]; ERK2 enzyme assay (2)) [nM]
1 | Cn1cc(-c2cnc3ccc(Nc4nnc(C(C)(C)C)s4)nc3c2)cn1 [Example 0162] | < 1000 | < 1000 | < 1000 |  |  | 
2 | Cc1c(-c2cnc3ccc(Nc4nnc(C(C)C)s4)nc3c2)cnn1CCCN1CCCC1 [Example 0360, 5-Isopropyl-N-(7-(5-methyl-1-(3-(pyrrolidin-1-yl)propyl)-1H-pyrazol-4-yl)-1,5-naphthyridin-2-yl)-1,3,4-thiadiazole-2-amine] |  |  |  | < 1000 | < 1000 | < 1000
3 | CCCCc1nn(C)cc1-c1cnc2ccc(Nc3nnc(C4CCCC4)s3)nc2c1 [Example 0115] | < 1000 | < 1000 | < 1000 |  |  | 
4 | CC(C)c1cnnc(Nc2ccc3ncc(-c4ccnc(O)c4)cc3n2)c1 [Example 0589, 4-(6-((5-isopropylpyridazin-3-yl)amino)-1,5-naphthyridin-3-yl)pyridin-2-ol] |  |  |  | < 1000 | < 1000 | < 1000
5 | CCOC(=O)Cc1nnc(Nc2ccc3ncc(-c4cnn(CCCN5CCCC5)c4)cc3n2)s1 [Example 0242, ethyl (5-((7-(1-(3-(pyrrolidin-1-yl)propyl)-1H-pyrazol-4-yl)-1,5-naphthyridin-2-yl)amino)-1,3,4-thiadiazol-2-yl)acetate] |  |  |  | < 1000 | < 1000 | < 1000
6 | c1nc2ccc(Nc3cc(C4CC4)cnn3)nc2cc1-c1cnn(CCCN2CCCC2)c1 [Example 0295, N-(5-cyclopropylpyridazin-3-yl)-7-(1-(3-(pyrrolidin-1-yl)propyl)-1H-pyrazol-4-yl)-1,5-naphthyridine-2-amine] |  |  |  | < 1000 | < 1000 | < 1000
7 | COc1nn(C)cc1-c1cnc2ccc(Nc3nnc(C4CCCC4)s3)nc2c1 [Example 0114] | < 1000 | < 1000 | < 1000 |  |  | 
8 | c1ncc(OCCCN2CCOCC2)cc1Nc1cnc2ccc(Nc3nnc(C4CCCC4)s3)nc2c1 [Example 0084] | < 1000 | < 1000 | < 1000 |  |  | 
9 | c1ncc(OCCCN2CCCC2)cc1Nc1cnc2ccc(Nc3nnc(C4CCCC4)s3)nc2c1 [Example 0087] | < 1000 | < 1000 | < 1000 |  |  | 
10 | COc1cc(-c2cnc3ccc(Nc4cc(C(C)C)cnn4)nc3c2)ccn1 [Example 0588] |  |  |  | < 1000 | 1000 to 10000 | < 1000
11 | COCc1nn(C)cc1-c1cnc2ccc(Nc3cc(C)cnn3)nc2c1 [Example 0161] | < 1000 | < 1000 | < 1000 |  |  | 
12 | Cc1ccc(Nc2ccc3ncc(-c4cnn(C)c4)cc3n2)nn1 [Example 0151] | < 1000 | 10000 to 50000 | 1000 to 10000 |  |  | 
13 | COCCCn1cc(-c2cnc3ccc(Nc4nnc(C5CCCC5)s4)nc3c2)cn1 [Example 0339, 5-cyclopentyl-N-(7-(1-(3-methoxypropyl)-1H-pyrazol-4-yl)-1,5-naphthyridin-2-yl)-1,3,4-thiadiazole-2-amine] |  |  |  | < 1000 | < 1000 | < 1000
14 | COCc1nn(C)cc1-c1cnc2ccc(Nc3nnc(C(C)C)s3)nc2c1 [Example 0142] | < 1000 | < 1000 | < 1000 |  |  | 
15 | CC(C)c1nnc(Nc2ccc3ncc(-c4cn(C)nc4-c4cccnc4)cc3n2)s1 [Example 0134] | < 1000 | < 1000 | < 1000 |  |  | 
16 | CC(C)c1nnc(Nc2ccc3ncc(-c4cn(C)nc4-c4ccccc4)cc3n2)s1 [Example 0124, 5-isopropyl-N-(7-(1-methyl-3-phenyl-1H-pyrazol-4-yl)-1,5-naphthyridin-2-yl)-1,3,4-thiadiazole-2-amine] | < 1000 | < 1000 | 1000 to 10000 |  |  | 
17 | CC(C)c1nnc(Nc2ccc3ncc(Nc4cncnc4)cc3n2)s1 [Example 0095] | < 1000 | < 1000 | 1000 to 10000 |  |  | 
18 | c1nnc(Nc2ccc3ncc(-c4cn[nH]c4)cc3n2)s1 [Example 0032, N-(7-(1H-pyrazol-4-yl)-1,5-naphthyridin-2-yl)-1,3,4-thiadiazole-2-amine hydrochloride] | < 1000 | < 1000 | < 1000 |  |  | 
